Source: ChEMBL document CHEMBL1201862, “PubChem BioAssay data set” (2004)
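Method: 48-hour compound exposure of cells in 96-well plates, five concentrations, linear interpolation of endpoints. Abbreviation: GI50, concentration required for 50% inhibition of growth.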 The source made the active and inactive calls. Rule as the data show it: active = GI50 up to about 1.1 µM and inactive = higher.

Experiments:
Test in all cases: inhibition of tumour cell growth, NCI panel, 48 h
HT-29 = system: HT-29
DU-145 = system: DU-145
SK-MEL-28 = system: SK-MEL-28
MDA-N = system: MDA-N
MOLT-4 = system: MOLT-4
NCI-H460 = system: NCI-H460
OVCAR-5 = system: OVCAR-5
SN12C = system: SN12C
UACC-257 = system: UACC-257
HOP-92 = system: HOP-92
HCT-116 = system: HCT-116
SK-MEL-2 = system: SK-MEL-2
SF-268 = system: SF-268
K562 = system: K562
RPMI-8226 = system: RPMI-8226
M14 = system: M14
MDA-MB-231 = system: MDA-MB-231
SW-620 = system: SW-620
T47D = system: T47D
SK-OV-3 = system: SK-OV-3

SMILES	GI50 (HT-29)	GI50 (DU-145)	GI50 (SK-MEL-28)	GI50 (MDA-N)	GI50 (MOLT-4)	GI50 (NCI-H460)	GI50 (OVCAR-5)	GI50 (SN12C)	GI50 (UACC-257)	GI50 (HOP-92)	GI50 (HCT-116)	GI50 (SK-MEL-2)	GI50 (SF-268)	GI50 (K562)	GI50 (RPMI-8226)	GI50 (M14)	GI50 (MDA-MB-231)	GI50 (SW-620)	GI50 (T47D)	GI50 (SK-OV-3)
S=c1sscc1N1CCSc2ssc(=S)c21	> 100 µM (inactive)	21.8 µM (inactive)	> 100 µM (inactive)	> 100 µM (inactive)	> 100 µM (inactive)	> 100 µM (inactive)	> 100 µM (inactive)	25.8 µM (inactive)	> 100 µM (inactive)	8.36 µM (inactive)	87.1 µM (inactive)	78.2 µM (inactive)	35.9 µM (inactive)	> 100 µM (inactive)	> 100 µM (inactive)	> 100 µM (inactive)	30.1 µM (inactive)	> 100 µM (inactive)	20.8 µM (inactive)	
COc1cc(C2(O)c3ccccc3C3=NCCN32)cc(OC)c1OC (stereo not given)	> 100 µM (inactive)	> 100 µM (inactive)	> 100 µM (inactive)	> 100 µM (inactive)	30.3 µM (inactive)	> 100 µM (inactive)		> 100 µM (inactive)	> 100 µM (inactive)	> 100 µM (inactive)	> 100 µM (inactive)	> 100 µM (inactive)	> 100 µM (inactive)	> 100 µM (inactive)	> 100 µM (inactive)		> 100 µM (inactive)	> 100 µM (inactive)	> 100 µM (inactive)	> 100 µM (inactive)
COC(=O)C1CC(C=[N+](C)C)=C(SC)N1 (stereo not given)	> 100 µM (inactive)	> 100 µM (inactive)	> 100 µM (inactive)	> 100 µM (inactive)	> 100 µM (inactive)	98.2 µM (inactive)	> 100 µM (inactive)		> 100 µM (inactive)	> 100 µM (inactive)	> 100 µM (inactive)	> 100 µM (inactive)	> 100 µM (inactive)	> 100 µM (inactive)	> 100 µM (inactive)	> 100 µM (inactive)	> 100 µM (inactive)	> 100 µM (inactive)	> 100 µM (inactive)	> 100 µM (inactive)
CCCCCCCCCCCCOc1ccc(/C=C/C2=[N+](CCCl)CCO2)cc1	> 100 µM (inactive)	> 100 µM (inactive)	> 100 µM (inactive)	75.9 µM (inactive)	25 µM (inactive)	43.4 µM (inactive)	> 100 µM (inactive)	77.4 µM (inactive)	63.2 µM (inactive)	25.1 µM (inactive)	15.8 µM (inactive)	> 100 µM (inactive)		21.3 µM (inactive)	20.1 µM (inactive)	> 100 µM (inactive)	25.1 µM (inactive)	> 100 µM (inactive)	76.4 µM (inactive)	> 100 µM (inactive)
CC(C)(Oc1ccc(C2C[C@H]2Cl)cc1)C(=O)O (stereo not given in full)		> 100 µM (inactive)	> 100 µM (inactive)	> 100 µM (inactive)	> 100 µM (inactive)	> 100 µM (inactive)	> 100 µM (inactive)	> 100 µM (inactive)	> 100 µM (inactive)	> 100 µM (inactive)	> 100 µM (inactive)	> 100 µM (inactive)		> 100 µM (inactive)	> 100 µM (inactive)		> 100 µM (inactive)	> 100 µM (inactive)	15.3 µM (inactive)	> 100 µM (inactive)
Nc1c(-c2nc3ccccc3o2)sc(=S)n1-c1ccc(Cl)cc1	37.4 µM (inactive)	12 µM (inactive)	13.9 µM (inactive)	21.4 µM (inactive)	> 100 µM (inactive)	23 µM (inactive)	46.1 µM (inactive)	51.8 µM (inactive)	18 µM (inactive)	21.7 µM (inactive)	12.3 µM (inactive)	11.2 µM (inactive)	12.9 µM (inactive)	0.474 µM (active)	82.6 µM (inactive)	15.4 µM (inactive)	19.3 µM (inactive)		2.58 µM (inactive)	15.5 µM (inactive)
COC(CNC(=O)C(C)NC(=O)C(C)NC(=O)c1ccccc1)OC (stereo not given)	> 100 µM (inactive)	> 100 µM (inactive)		> 100 µM (inactive)	> 100 µM (inactive)	> 100 µM (inactive)	> 100 µM (inactive)	> 100 µM (inactive)	> 100 µM (inactive)	> 100 µM (inactive)	> 100 µM (inactive)	> 100 µM (inactive)	> 100 µM (inactive)	> 100 µM (inactive)	> 100 µM (inactive)	> 100 µM (inactive)	> 100 µM (inactive)	> 100 µM (inactive)	> 100 µM (inactive)	> 100 µM (inactive)
